Entries after “also recorded” stand apart in the source; their conditions may differ. Like-named read-outs stand apart in the source and are kept apart here. Each block holds one compound with its values, some of them ahead of it.
Key:
[1] = pK values of representative molecules in ground state (S0) and first excited singlet state (S1), Table I; type: physicochemical; details: S0 to S1
Text: As shown by the data of the tables set forth in Ireland et al., the phenomenon is quite general and is characteristic of bases as well as acids. Ireland et al. is hereby incorporated by reference. Values of pK for representative molecules in the ground state (S0) and the first excited singlet state (S1) are given in Table I. Deprotonation results in increased acidity whereas protonation increases the basicity of the solution. […] The change in pK may be quite large.

[2] = pH jump (more acidic) by 266 nm irradiation of 2-naphthol-6-sulfonate solution
Text: A single 30 psec pulse 4 at 1064 nm is extracted from the pulse train of mode-locked Nd:YAG laser 1 by means of Blumlein electronic switchout unit 3. The flowing dye 2 serves to mode lock laser 1. A second harmonic of pulse 4 is generated at 532 nm in KDP crystal 5.
Wavelengths other than 532 nm are then removed from pulse 4 by means of spectral filters 6. The 532 nm pulse is reflected from mirror 7 through ADP crystal 8 where it in turn is frequency doubled to produce the fourth harmonic at 266 nm.
Beam splitter 11 directs a portion of the 266 nm pulse to energy meter 20. […] The beam size on sample 12 is ~0.1 mm. […] Appropriate filters 14 are used to isolate various emission bands.
The pH of the solutions was adjusted by addition of reagent grade HCl or NaOH and was measured on a pH meter (Fisher Model 230) accurate to about 0.1 pH unit.

[3] = Excited state protonation/deprotonation of 2-naphthol-6-sulfonate by picosecond laser/streak camera fluorescence; type: physicochemical
Text: A number of runs were made to obtain measurements from which the rates of excited state protonation and deprotonation kf and kb, respectively, could be determined for the reaction: [formula] […] As long as the solution is not so acidic as to make the protonation reaction fast (pH≤3), the rate of excited state proton transfer is simply determined from the risetime of the anion emission.
Since the fluorescence of 2-naphthol-6-sulfonate (λmax ~360 nm) is considerably shifted from that of its anion (λmax ~430 nm), only the anion emission is recorded when 450±10 nm spectral filter 14 is placed between the sample cell 12 and the slit of streak camera 15. FIG. 4 is a plot of the risetime (10-90%) of the emission from the 2-naphthol-6-sulfonate anion versus the initial pH of the solution. Individual points represent the average of four to six separate streak camera exposures. […] At very high acidities, the protonation rate becomes so rapid that the temporal profile of the excited anion emission follows that of the protonated species.
By measuring the time history of both anionic and acidic species under a variety of experimental conditions and using a kinetic scheme which includes terms for the fluorescence lifetimes and quenching, the complete kinetics of the excited state protonation deprotonation are readily obtained. For 2-naphthol-6-sulfonate, kf =(1.02±0.3)×10^9 sec^-1 and kb =(9.0±3)×10^10 l-mole^-1 -sec^-. The solid line of FIG. 4 is a fit using a kinetic model with kf and kb having these values.

[4] = cited from earlier work; for pK(S0): ground state
[5] = Comparison of proton transfer time and excited state lifetime; type: physicochemical; details: for proton transfer time: excited state; for ability to produce pH change: on electronic excitation
Text: Consider the situation wherein the proton transfer time for either protonation or deprotonation is longer than the excited state lifetime of the molecules in question. In this situation, it is not possible to achieve an acid-base equilibrium during the excited state lifetime. As a result, some of the photons that could be used to produce protons under acid-base equilibrium conditions are no longer available for this purpose because the excitation produced by them is lost in various decay processes from the excited state (see FIG. 1). It will be apparent therefore, that to maximize the pH change for a particular concentration and radiation fluence, it is highly desirable that the proton transfer time be substantially shorter than the excited state lifetime.
It can, however, be readily determined for any compound of interest by means of time resolved spectroscopy of species in the solution. In the case of an acid reaction of the type shown in reaction (1), these would be the acid AH and the anion A^-. Such spectroscopy permits the concentrations of these species to be ascertained.
The requisite spectroscopic measurements are quite straightforward if (a) the excited states of both AH and A^- fluoresce, (b) the fluorescence from the excited states of AH and A^- is sufficiently spectrally shifted that they can be distinguished from one another, and (c) excited state protonation and deprotonation occur with retention of the electronic excitation. […] In those instances where they are not met it is still possible to obtain the necessary information by means of various techniques well known to those versed in the spectroscopic arts. Thus, for example, lack of fluorescence from the excited states of AH and A^- can be overcome by probing with excited-state absorption spectroscopy rather than emission spectroscopy.

[6] = ground state, cited from earlier work
[7] = cited from earlier work
[8] = pH jump (more basic) by irradiation of coumarin 102 solution; type: physicochemical
Text: (§1) A proton attaches at the carbonyl site by the reaction [formula] Here Kp is the protonation rate constant and kdp is the deprotonation rate constant.
(§2) Experimental runs utilized laser grade coumarin 102 (Eastman) which was maintained at a concentration of 1.0×10^-3 M in a 1:1 H2 O:ethanol solvent. Deionized, distilled water and reagent grade ethanol were used for all of the runs. The solution pH was varied by the addition of reagent grade HCl and measured to an accuracy of 0.05 pH unit with a pH meter (Markson 90). The apparatus of FIG. 3 was modified to the extent that ADP crystal 8 was replaced by a KDP sum frequency generator to produce […] radiation which excited the sample. Filter 9 was either a 435 nm interference filter or a Corning 2-62 filter to isolate fluorescence from coumarin 102 and its cation, respectively.

[9] = Excited state protonation of coumarin 102 by time-resolved fluorescence; type: physicochemical
Text: as §1, §2
The experimental runs were made to obtain measurements of the time history of both species under a variety of experimental conditions.

[10] = 1.0×10^-3 M in water, 266 nm, 20 psec pulse
[11] = reaction as drawn in the line of Table II

pK change upon excitation [1]: 7 | increase in H3O^+ ([2]; 20 psec, 266 nm pulse, typically 30 μJ): more than 10^-4 M | results with freshly prepared and day-old solutions ([3]; 1.0×10^-3 M in water): identical
SMILES: O=S(=O)(O)c1ccc2cc(O)ccc2c1 [2-Naphthol-6-Sulfonate]
excited state acid-base equilibrium [2]: excited state acid-base equilibrium is achieved | excited state lifetime [2]: about 10 nsec | proton transfer time ([2]; excited state): less than 1 nsec | rate of excited state deprotonation/proton transfer, kf [3, 10]: (1.02±0.3)×10^9 sec^-1 | rate of excited state protonation, kb [3, 10]: (9.0±3)×10^10 l-mole^-1 -sec^- | risetime (10-90%) of anion emission versus initial pH ([3]; 450±10 nm, initial pH varied): As the solution becomes more acidic, the risetime becomes more rapid | pK(S0) [4]: 9.1 | excited state lifetime [5]: 1e-08 s | proton transfer time [5]: less than 1×10^-9 sec | ability to produce pH change [5]: can be used to produce large and very rapid pH modulation

SMILES: Oc1ccc2ccccc2c1 [2-Naphthol]
pK(S0) [4]: 9.5 | excited state lifetime [5]: ~ 6×10^-9 sec | proton transfer time [5]: 2e-08 s | ability to produce pH change [5]: cannot; also recorded: the amount of the change is substantially less than that which can be achieved with 2-naphthol-6-sulfonate

SMILES: Nc1ccc2ccccc2c1 [2-Naphthylamine]
pK(S0) [6, 11]: ≥ 14 | pK(S0) ([6]; second 2-Naphthylamine line, reaction drawing 7): 4.1

SMILES: c1ccc2nc3ccccc3cc2c1 [Acridine]
pK(S0) [6, 11]: 5.5

SMILES: c1ccc(N=Nc2ccccc2)cc1 [Azobenzene]
pK(S0) [6, 11]: -2.90

pK change upon excitation [1]: 29
SMILES: c1ccc2c(c1)Cc1ccccc1-2 [Fluorene, reference compound]

SMILES: c1ccc2ccccc2c1 [Naphthalene]
pK(S0) [6, 11]: -4.0

SMILES: c1ccc2c(c1)ccc1ccccc12 [Phenanthrene, reference compound]
acidity/basicity in ground and excited state ([4]; ground state versus first excited singlet state): becomes less acidic (more basic) in the excited state | pK(S0) [4]: -3.5

SMILES: O=c1c2ccccc2oc2ccccc12 [Xanthone]
triplet state lifetime [7]: several to tens of milliseconds | pK(S0) [6, 11]: -4.1

SMILES: O=C(c1ccccc1)c1ccccc1 [benzophenone]
triplet state lifetime [7]: several to tens of milliseconds

pH after pH jump ([8]; initial pH 4, 355 nm pulses >1 mJ): 4.1
SMILES: Cc1cc(=O)oc2c3c4c(cc12)CCCN4CCC3 [coumarin 102]
quenching of excited states ([8]; concentrations near 10^-3 M): no evidence of quenching of excited states | deprotonation during excited state lifetime ([9]; 1:1 H2O:ethanol): very small | excited state acid-base equilibrium ([9]; 1:1 H2O:ethanol): excited state acid-base equilibrium is not achieved | excited state lifetime ([9]; 1.0×10^-3 M in 1:1 H2O:ethanol): 3.3±0.3 nsec | excited state protonation rate constant kp ([9]; 1.0×10^-3 M in 1:1 H2O:ethanol, 355 μm (so in the source) excitation): (1.6 ±0.3)×10^10 l-mole^-1 -sec^-1
